Earlier results, collected in article PMC3653294 (Bioorganic & medicinal chemistry, 2013).

Tested on: liver fibrosis

Structure (SMILES): CCOc1nc2cccc(C(=O)O)c2n1Cc1ccc(-c2ccccc2-c2nnn[nH]2)cc1 [Candesartan]
- effect on liver fibrosis: decreases liver fibrosis
